# Results as given in ChEMBL document CHEMBL1201862, “PubChem BioAssay data set” (2004).
# Calls of active or inactive are those of the source. Cut-off read from the data, not from the text of the source, for most assays here: actives have a measured EC50 and inactives only a lower limit.
# Experiments:
# INS1 = experiment: beta cell apoptosis inhibitors, cytokine rescue, dose response, luminescence, retest (AID 449756); type: functional, cell-based; settings: Rattus norvegicus;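 note: cell death triggered by IL-1 beta plus TNF-alpha plus IFN-gamma mixture; protective hits raise ATP signal compared with cytokine alone wells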
# [1] = target: T1, Corticotropin-releasing factor receptor 2/Corticotropin-releasing factor-binding protein (Homo sapiens, UniProt P24387+Q13324); experiment: Dose Response confirmation of uHTS hits for small molecule antagonists of the CRF-binding protein and CRF-R2 receptor complex.; type: functional; settings: read-out: IC50_Mean
# T1 sequence (Q13324 whole entry): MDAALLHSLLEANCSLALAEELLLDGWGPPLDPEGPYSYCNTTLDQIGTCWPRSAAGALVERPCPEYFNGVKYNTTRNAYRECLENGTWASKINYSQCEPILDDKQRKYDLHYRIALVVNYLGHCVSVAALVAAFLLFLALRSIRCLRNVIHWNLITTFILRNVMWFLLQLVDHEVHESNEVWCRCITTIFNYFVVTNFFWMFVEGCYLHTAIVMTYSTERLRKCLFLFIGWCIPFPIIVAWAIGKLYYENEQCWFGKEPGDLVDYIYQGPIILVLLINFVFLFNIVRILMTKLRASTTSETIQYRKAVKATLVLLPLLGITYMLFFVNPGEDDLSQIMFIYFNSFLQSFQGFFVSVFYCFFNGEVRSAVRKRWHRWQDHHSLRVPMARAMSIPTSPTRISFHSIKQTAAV
# T1 sequence (P24387 whole entry): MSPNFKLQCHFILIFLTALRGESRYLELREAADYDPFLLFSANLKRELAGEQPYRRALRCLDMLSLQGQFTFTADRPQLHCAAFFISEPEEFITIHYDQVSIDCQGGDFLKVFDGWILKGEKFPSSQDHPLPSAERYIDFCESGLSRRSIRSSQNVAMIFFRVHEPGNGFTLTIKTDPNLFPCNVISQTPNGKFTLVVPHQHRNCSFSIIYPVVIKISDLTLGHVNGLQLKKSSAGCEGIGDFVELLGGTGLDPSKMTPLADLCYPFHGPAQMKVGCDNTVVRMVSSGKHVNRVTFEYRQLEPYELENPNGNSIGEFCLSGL
# [2] = target: T1, Corticotropin-releasing factor receptor 2/Corticotropin-releasing factor-binding protein; experiment: activators of CRF receptor 2 with binding protein – uHTS hits, confirmation (AID 602473); type: functional; settings: read-out: EC50_Mean
# [3] = Luminescence Cell-Based Dose Response HTS to Identify Activators of Luciferase Translation or Activity in H4 […] Cells. [Related pubchem assays: 1829 (Project Summary), 1814 (Primary HTS)]; type: functional
# H4 = experiment: Luminescence Cell-Based Dose Response HTS to Identify Activators of 5'UTR Stem-Loop Driven Prion Protein mRNA Translation in H4 Neuroglioblastoma Cells. [Related pubchem assays: 1829 (Project Summary), 1814 (Primary HTS)]; type: functional; settings: Homo sapiens
# [4] = Luminescence Cell-Based Dose Confirmation HTS to Identify Activators of 5'UTR Stem-Loop Driven Alpha-Synuclein mRNA Translation in H4 Neuroglioblastoma Cells. [Related pubchem assays: 1829 (Project Summary), 1814 (Primary HTS)]; type: functional
# [5] = target: T2, Heat shock factor protein 1 (Mus musculus, UniProt P38532); experiment: HSF1 potentiators in luciferase reporter cells, confirmation, cell-based, NIH3T3, luminescence, dose retest (AID 435004); type: functional;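 note: stress induced by proteasome inhibitor MG132 added 30 min after compound; luciferase reporter driven by HSF1 response element in NIH3T3 cells; actives raise luminescence as potentiators of the MG132 stress response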
# T2 sequence (P38532 whole entry): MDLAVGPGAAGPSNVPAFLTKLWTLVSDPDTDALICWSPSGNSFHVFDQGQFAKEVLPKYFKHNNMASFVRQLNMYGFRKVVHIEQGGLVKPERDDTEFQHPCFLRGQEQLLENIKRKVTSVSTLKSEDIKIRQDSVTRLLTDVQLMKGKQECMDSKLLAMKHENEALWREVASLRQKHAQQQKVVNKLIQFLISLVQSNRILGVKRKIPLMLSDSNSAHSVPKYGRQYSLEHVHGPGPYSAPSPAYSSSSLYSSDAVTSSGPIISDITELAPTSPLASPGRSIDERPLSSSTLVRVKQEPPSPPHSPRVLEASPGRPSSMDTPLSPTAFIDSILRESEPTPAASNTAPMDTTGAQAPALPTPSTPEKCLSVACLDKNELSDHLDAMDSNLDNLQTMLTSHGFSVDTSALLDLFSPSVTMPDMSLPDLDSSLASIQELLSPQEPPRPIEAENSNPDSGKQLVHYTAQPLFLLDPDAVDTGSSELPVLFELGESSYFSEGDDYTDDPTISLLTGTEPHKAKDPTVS
# [6] = system: Streptococcus sp. 'group A'; experiment: growth inhibition of control SK(-) GAS strain, dose response, counter-screen for streptokinase expression inhibitor project, luminescence, kanamycin, BacTiterGlo, confirmation (AID 1900); type: functional, organism-based
# Streptokinase A = target: T3, Streptokinase A (Streptococcus pyogenes serotype M1, UniProt P10520); experiment: S. pyogenes streptokinase expression inhibitors, potency, dose response, plasminogen activation absorbance, OD405 (AID 1914); type: functional, Streptococcus pyogenes M1 GAS;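 note: secreted streptokinase activity via plasminogen activation per viability signal from cell pellet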
# T3 sequence (P10520 whole entry): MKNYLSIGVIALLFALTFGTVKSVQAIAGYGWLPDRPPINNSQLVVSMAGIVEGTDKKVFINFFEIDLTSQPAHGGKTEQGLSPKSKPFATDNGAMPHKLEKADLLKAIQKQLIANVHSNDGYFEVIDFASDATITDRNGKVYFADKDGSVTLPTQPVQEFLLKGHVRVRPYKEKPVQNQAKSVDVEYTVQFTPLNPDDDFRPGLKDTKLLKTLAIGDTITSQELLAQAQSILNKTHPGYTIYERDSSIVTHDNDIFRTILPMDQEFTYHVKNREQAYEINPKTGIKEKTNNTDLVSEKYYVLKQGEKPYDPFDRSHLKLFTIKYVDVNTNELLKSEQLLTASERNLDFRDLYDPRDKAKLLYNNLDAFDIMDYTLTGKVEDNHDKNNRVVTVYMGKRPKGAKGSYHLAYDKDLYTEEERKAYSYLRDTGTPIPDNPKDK
# Streptococcus = experiment: Group A Streptococcus viability loss, dose response, counter-screen for streptokinase expression inhibitor project, luminescence, BacTiterGlo (AID 1915); type: functional, organism-based;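 note: potency for reduction of bacterial viability or growth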
# [7] = inhibitors of intracellular T. cruzi replication, confirmation, NIH3T3 host cells, beta-gal luminescence (AID 2044); type: functional, cell-based;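 note: intracellular parasites grown in NIH/3T3 mouse fibroblasts as host cells; luminescent beta-galactosidase reporter signal from transgenic T. cruzi replicating inside host cells; inhibitors lower the luminescence signal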
# [8] = cytotoxicity toward NIH3T3 fibroblasts, dose response, counter-screen, cell-based, ATP luminescence, mouse fibroblasts (AID 2010); type: functional;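 note: cells exposed to compound for about 90 hours before reading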
# [9] = target: T2, Heat shock factor protein 1; experiment: inhibition of MG132-induced HSE-luciferase signal, confirmation, cell-based, NIH3T3, luminescence, dose retest (AID 2382); type: functional;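 note: NIH3T3 fibroblasts with HSF1-driven luciferase reporter stressed by proteasome inhibitor MG132; luminescence from HSF1-driven luciferase expression after 8 hours of MG132 stress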
# [10] = HEp-2 cell cytotoxicity, dose response, cytotoxicity control for RSV inhibitor project, HTS (AID 2410); type: functional; settings: human respiratory syncytial virus
# [11] = NIH-3T3 fibroblast cytotoxicity, dose response, cytotoxicity control, cell-based, fluorescence, Alamar Blue, secondary assay (AID 2327); type: functional;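 note: NIH-3T3 mouse fibroblasts cultured with fluconazole at 8 µg/mL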
# [12] = C. albicans growth with fluconazole, confirmation, fluorescence, retest (AID 2467); type: functional, cell-based
smiles,measurement,setting,value
Cc1ccc(C)c(N2CCN(C(=O)CCCOc3cc(=O)n(C)c4ccccc34)CC2)c1,AC50,INS1,2.78 µM (active)
Cc1ccc(S(=O)(=O)N(CC(=O)N=Nc2c(O)[nH]c3ccccc23)c2ccc(C)c(C)c2)cc1,IC50,[1],3.25 µM (active)
same,EC50,[2],> 53 µM (inactive)
Cc1nn2c3ccccc3nc2n(C)c1=O,IC50,[1],> 47.1 µM (inactive)
same,EC50,[2],> 53 µM (inactive)
CCCCC/N=C(/C)c1c(O)oc2ccccc2c1=O,EC50,[3],61.4 µM (active)
same,EC50,H4,9.36 µM (active)
same,EC50,[4],> 120 µM (not active)
Cc1cccc(N=C(S)N(CCN(C)C)C(C)c2cccnc2)c1 (stereo not drawn),EC50,[5],> 260 µM (inactive)
Cc1nc(SCC(=O)c2cccs2)c2oc3ccccc3c2n1,EC50,[3],16 µM (active)
same,EC50,[6],21.2 µM (active)
same,EC50,H4,68 µM (active)
same,EC50,[4],21.5 µM (active)
same,EC50,Streptokinase A,> 150 µM (not active)
same,EC50,Streptococcus,20.1 µM (active)
O=c1c(-c2ccc3c(c2)OCCO3)coc2cc(O)cc(O)c12,EC50,[5],19.2 µM (active)
C=CCn1c(SCC(=O)NC2CCCC2)nc2scc(-c3ccco3)c2c1=O,EC50,[5],> 260 µM (inactive)
c1ccc2oc(C3=NN=C(NC4CC4)SC3)cc2c1,EC50,[3],> 120 µM (not active)
same,EC50,H4,> 120 µM (not active)
same,EC50,[4],> 120 µM (not active)
CC(C)N(Cc1nc(-c2ccc(Cl)cc2)no1)C(=O)CN(C)S(=O)(=O)c1ccc(Cl)cc1,EC50,[7],2.71 µM (active)
same,EC50,[5],> 260 µM (inactive)
same,EC50,[8],> 60 µM (not active)
COCCNC(=O)CSC1=N/C(=C/c2ccc(Cl)c(Cl)c2)C(=O)N1c1ccccc1F,EC50,[9],20 µM (active)
same,CC50,[10],47.8 µM (active)
same,AC50,INS1,8.64 µM (active)
COc1ccc(/N=C/C=C2\C=C(c3ccccc3)OC(C)(C)O2)cc1,EC50,[3],10.2 µM (active)
same,EC50,H4,> 120 µM (not active)
same,EC50,[4],> 120 µM (not active)
CC(C)=CCc1cc2c(=O)c3c(O)c4c(cc3oc2c(O)c1O)OC(C)C4(C)C (stereo not drawn) [GERONTOXANTHONE G],EC50,[7],2.64 µM (active)
same,EC50,[11],> 160 µM (inactive)
same,EC50,[12],> 38 µM (not active)
same,EC50,[8],6.31 µM (active)
same,AC50,INS1,5.18 µM (active)
COc1ccc(-c2nnc3c4ccccc4c(C)nn23)cc1,EC50,[3],18.6 µM (active)
same,EC50,H4,> 120 µM (not active)
same,EC50,[4],13.3 µM (active)
COc1ccc(CN2CC(=O)N(c3cccc(Cl)c3)C2=S)cc1OC,IC50,[1],> 47.1 µM (inactive)
same,EC50,[2],> 53 µM (inactive)
CCCC12C(=O)C(C)(C(c3ccccc3)=C1c1ccccc1)C1C(=O)N(c3ccc(C)cc3)C(=O)C12 (stereo not drawn),AC50,INS1,4.16 µM (active)
Cc1nc2scc(-c3ccc(Cl)cc3)c2c(=O)n1N,EC50,[5],> 260 µM (inactive)
O=C(NC1CCCCC1)NS(=O)(=O)c1ccc2c(c1)CCC2 [GLYHEXAMIDE],IC50,[1],> 47.1 µM (inactive)
same,EC50,[2],> 53 µM (inactive)
